Measurements published in US20110039763A1, “TARGETED ANTIMICROBIAL MOIETIES” (C3 JIAN, INC., priority 2009, published 2011).
Entries after “also recorded” stand apart in the source; their conditions may differ.

Tests used:
microorganisms [1] = assay: Morphology, biofilm and growth disrupting peptides (Table 5); assay type: cell-based; design: key: A: Peptide aggregates; B: Less hyphal formation; Clumps; Diffuse clumps and small polyps; F: Diffuse growth; H: Thin; I: Growth inhibition; Microcolony formation; Rippled; Small polyps; Thick; W: Halo formation on top, microlonies on bottom
Description: In certain embodiments peptides that induce alterations in phenotype or other biological activities can also be used as antimicrobial effector moieties.

microorganisms [2] = assay: Peptide activities: targeting/binding, antimicrobial, growth or phenotype altering (Tables 7, 8); assay type: cell-based; conditions: peptides having multiple activities
microorganisms [3] = assay: Targeting peptide binding to target microorganisms (Tables 3, 10, 12); conditions: microorganism(s) the targeting peptide binds, preferably 1x PBS
[4] = binding in aqueous buffers that varied with peptide solubility
[5] = binding in aqueous buffers varied with peptide solubility

## ALDCSEQSVILWYETILDKIVGVIK [PF-028]
Microorganisms [1]; C. jeikeium
  Organism, effect: C. jeikeium: C. jeikeium (M)
Microorganisms [1]; MRSA
  Organism, effect: MRSA: MRSA (R)
Microorganisms [1]
  Organism, effect: S. epidermidis: S. epidermidis (M)
Microorganisms [2]
  Activities: G B
Microorganisms [3]; [4]
  Target(s): S. epidermidis and M. luteus and MRSA

## DEIKVSDEEIEKFIKENNL [PF-597]
Microorganisms [1]; E. faecalis
  Organism, effect: E. faecalis (A)
Microorganisms [2]
  Activities: G B
Microorganisms [3]; [5]
  Target(s): P. mirabilis

## GNVHPESDFHNLIQFIKTFLYFTIFFKYFL [PF-C290]
Microorganisms [1]; S. mutans
  Organism, effect: S. mutans (F)
Microorganisms [2]
  Activities: G B
Microorganisms [3]; [5]
  Target(s): A. naeslundii; also recorded: F. nucleatum; also recorded: P. gingivalis; also recorded: S. mutans; also recorded: T. denticola

## HCVIGNVVDIANLLKRRAVYRDIADVIKMR [PF-071]
Microorganisms [1]
  Organism, effect: B. subtilis: B. subtilis (D)
  Organism, effect: M. luteus: M. luteus (R)
  Organism, effect: S. epidermidis: S. epidermidis (R)
Microorganisms [1]; C. albicans
  Organism, effect: C. albicans: C. albicans (B)
Microorganisms [1]; C. jejuni
  Organism, effect: C. jejuni: C. jejuni (A)
Microorganisms [1]; MRSA
  Organism, effect: MRSA: MRSA (C)
Microorganisms [1]; S. pneumoniae
  Organism, effect: S. pneumoniae: S. pneumoniae (A)
Microorganisms [2]
  Activities: G B
Microorganisms [3]; [4]
  Target(s): S. epidermidis and E. coli and P. aeruginosa and C. albicans and MRSA and S. pneumoniae and E. faecalis

## HKNKLNIPHIKS [PF-477]
Microorganisms [1]; S. pneumoniae
  Organism, effect: S. pneumoniae (H)
Microorganisms [2]
  Activities: G B
Microorganisms [3]; [5]
  Target(s): S. epidermidis; also recorded: M. luteus; also recorded: C. albicans; also recorded: S. pneumoniae; also recorded: C. jeikeium; also recorded: C. jejuni

## KKFKIFVIINWFYHKYIILNFEENF [PF-C085]
Microorganisms [1]; S. mutans
  Organism, effect: S. mutans (F)
Microorganisms [2]
  Activities: G B
Microorganisms [3]; [5]
  Target(s): A. naeslundii; also recorded: F. nucleatum; also recorded: P. gingivalis; also recorded: S. mutans; also recorded: T. denticola

## LHVIRPRPELSELKFPITKILKVNKQGLKK [PF-752]
Microorganisms [1]; S. pneumoniae
  Organism, effect: S. pneumoniae (C)
Microorganisms [2]
  Activities: G B
Microorganisms [3]; [5]
  Target(s): S. epidermidis and E. coli and MRSA and S. pneumoniae and E. faecalis

## LIQKGLNQTFIVVIRLNNFIKKS [PF-013]
Microorganisms [1]; C. jeikeium
  Organism, effect: C. jeikeium: C. jeikeium (D)
Microorganisms [1]
  Organism, effect: M. luteus: M. luteus (D)
  Organism, effect: S. epidermidis: S. epidermidis (C)
Microorganisms [1]; MRSA
  Organism, effect: MRSA: MRSA (R)
Microorganisms [2]
  Activities: G B
Microorganisms [3]; [4]
  Target(s): M. luteus and P. mirabilis and E. coli and P. aeruginosa and MRSA and S. pneumoniae and C. jeikeium and C. jejuni

## LMFFSENMDKRDTLSGKFRYFAGSKVIKLMNWLSENGK [PF-226]
Microorganisms [1]
  Organism, effect: M. luteus: M. luteus (T)
  Organism, effect: S. epidermidis: S. epidermidis (C)
Microorganisms [2]
  Activities: G B
Microorganisms [3]; [5]
  Target(s): A. baumannii

## LNFRAENKILEKIHISLIDTVEGSA [PF-575]
Microorganisms [1]; C. jeikeium
  Organism, effect: C. jeikeium (A)
Microorganisms [1]; C. jejuni
  Organism, effect: C. jejuni (R)
Microorganisms [1]; P. aeruginosa
  Organism, effect: P. aeruginosa (A)
Microorganisms [1]; S. pneumoniae
  Organism, effect: S. pneumoniae (A)
Microorganisms [2]
  Activities: G B
Microorganisms [3]; [5]
  Target(s): M. luteus and E. coli and C. albicans and MRSA and S. pneumoniae and E. faecalis and C. jeikeium

## LSPRPIIVSRRSRADNNNDWSR [PF-143]
Microorganisms [1]; P. aeruginosa
  Organism, effect: P. aeruginosa: P. aeruginosa (C)
Microorganisms [2]
  Activities: G B
Microorganisms [3]; [5]
  Target(s): S. epidermidis and MRSA and C. jeikeium

## MQIFYIKTKIFLSFFLFLLIFSQCFYKIEE [PF-442]
Microorganisms [1]; MRSA
  Organism, effect: MRSA (M)
Microorganisms [1]; S. pneumoniae
  Organism, effect: S. pneumoniae (C)
Microorganisms [2]
  Activities: G B
Microorganisms [3]; [5]
  Target(s): S. epidermidis; also recorded: E. coli; also recorded: C. albicans; also recorded: S. pneumoniae; also recorded: E. faecalis

## NTNDLLQAFELMGLGMAGVFIVLGILYIVAELLIKIFPVNN [PF-C194]
Microorganisms [1]; F. nucleatum
  Organism, effect: F. nucleatum (T)
Microorganisms [1]; P. gingivalis
  Organism, effect: P. gingivalis (T)
Microorganisms [1]; S. mutans
  Organism, effect: S. mutans (F)
Microorganisms [2]
  Activities: G B
Microorganisms [3]; [5]
  Target(s): A. naeslundii; also recorded: F. nucleatum; also recorded: P. gingivalis; also recorded: S. mutans; also recorded: T. denticola

## PF-002: peptide having multiple activities (NDDAQ; Peptide with targeting and/or antimicrobial activity)
Microorganisms [1]
  Organism, effect: B. subtilis: B. subtilis (R)
Microorganisms [1]; S. pneumoniae
  Organism, effect: S. pneumoniae: S. pneumoniae (H)
Microorganisms [2]
  Activities: G B
Microorganisms [3]; [4]
  Target(s): S. epidermidis; also recorded: P. mirabilis; also recorded: C. albicans; also recorded: C. jeikeium; also recorded: C. jejuni

## PF-003: peptide having multiple activities (MNNWIKVAQISVTVINEVIDIMKEKQNGGK; Peptide with targeting and/or antimicrobial activity)
Microorganisms [1]; C. jeikeium
  Organism, effect: C. jeikeium: C. jeikeium (A)
Microorganisms [1]
  Organism, effect: M. luteus: M. luteus (A)
  Organism, effect: S. epidermidis: S. epidermidis (D)
Microorganisms [1]; MRSA
  Organism, effect: MRSA: MRSA (R)
Microorganisms [2]
  Activities: G B
Microorganisms [3]; [4]
  Target(s): S. epidermidis and M. luteus and P. mirabilis and C. albicans and MRSA and C. jeikeium

## PF-008: peptide having multiple activities (MIEIGSIAYLNGGSKKYNHILNQENR; Peptide with targeting and/or antimicrobial activity)
Microorganisms [1]
  Organism, effect: B. subtilis: B. subtilis (D)
Microorganisms [1]; C. jejuni
  Organism, effect: C. jejuni: C. jejuni (R)
Microorganisms [2]
  Activities: G B
Microorganisms [3]; [4]
  Target(s): S. epidermidis and M. luteus and MRSA and C. jejuni

## PF-009: peptide having multiple activities (SKKYNHILNQENR; Peptide with targeting and/or antimicrobial activity)
Microorganisms [1]
  Organism, effect: S. epidermidis: S. epidermidis (S)
Microorganisms [2]
  Activities: G B
Microorganisms [3]; [4]
  Target(s): M. luteus; also recorded: P. mirabilis; also recorded: C. albicans

## PF-010: peptide having multiple activities (MDIDVNKLLQAFVYFKSFEKLRHNNS; Peptide with targeting and/or antimicrobial activity)
Microorganisms [1]; C. jeikeium
  Organism, effect: C. jeikeium: C. jeikeium (A)
Microorganisms [1]
  Organism, effect: M. luteus: M. luteus (A)
  Organism, effect: S. epidermidis: S. epidermidis (S)
Microorganisms [1]; MRSA
  Organism, effect: MRSA: MRSA (R)
Microorganisms [2]
  Activities: G B
Microorganisms [3]; [4]
  Target(s): S. epidermidis; also recorded: M. luteus; also recorded: E. coli; also recorded: C. albicans

## PF-011: peptide having multiple activities (MFCYYKQHKGDNFSIEEVKNIIADNEMKVN; Peptide with targeting and/or antimicrobial activity)
Microorganisms [1]; C. jeikeium
  Organism, effect: C. jeikeium: C. jeikeium (C)
Microorganisms [1]; MRSA
  Organism, effect: MRSA: MRSA (R)
Microorganisms [2]
  Activities: G B
Microorganisms [3]; [4]
  Target(s): M. luteus; also recorded: E. coli; also recorded: P. aeruginosa; also recorded: S. pneumoniae; also recorded: C. jeikeium

## PF-015: peptide having multiple activities (SIDKRNLYNLKYYE; Peptide with targeting and/or antimicrobial activity)
Microorganisms [1]; MRSA
  Organism, effect: MRSA: MRSA (W)
Microorganisms [2]
  Activities: G B
Microorganisms [3]; [4]
  Target(s): E. faecalis; also recorded: C. jeikeium

## PF-017: peptide having multiple activities (ESIIE; Peptide with targeting and/or antimicrobial activity)
Microorganisms [1]; MRSA
  Organism, effect: MRSA: MRSA (M)
Microorganisms [2]
  Activities: G B
Microorganisms [3]; [4]
  Target(s): E. coli

## PF-020: peptide having multiple activities (MKIILLLFLIFGFIVVVTLKSEHQLTLFSI; Peptide with targeting and/or antimicrobial activity)
Microorganisms [1]
  Organism, effect: M. luteus: M. luteus (C)
  Organism, effect: S. epidermidis: S. epidermidis (C)
Microorganisms [1]; MRSA
  Organism, effect: MRSA: MRSA (C)
Microorganisms [1]; S. mutans, class symbol
  Organism, effect: S. mutans: S. mutans (F)
Microorganisms [1]; S. pneumoniae
  Organism, effect: S. pneumoniae: S. pneumoniae (D)
Microorganisms [2]
  Activities: G B
Microorganisms [3]; [4]
  Target(s): S. epidermidis and M. luteus and C. albicans and MRSA and S. pneumoniae and E. faecalis

## PF-021: peptide having multiple activities (FSLNFSKQKYVTVN; Peptide with targeting and/or antimicrobial activity)
Microorganisms [1]; C. jeikeium
  Organism, effect: C. jeikeium: C. jeikeium (R)
Microorganisms [1]
  Organism, effect: M. luteus: M. luteus (A)
  Organism, effect: S. epidermidis: S. epidermidis (A)
Microorganisms [1]; MRSA
  Organism, effect: MRSA: MRSA (R)
Microorganisms [2]
  Activities: G B
Microorganisms [3]; [4]
  Target(s): S. epidermidis; also recorded: M. luteus; also recorded: P. mirabilis; also recorded: E. coli; also recorded: C. albicans; also recorded: E. faecalis; also recorded: C. jeikeium

## PF-024: peptide having multiple activities (DLRKAK; Peptide with targeting and/or antimicrobial activity)
Microorganisms [1]; MRSA
  Organism, effect: MRSA: MRSA (M)
Microorganisms [1]
  Organism, effect: S. epidermidis: S. epidermidis (D)
Microorganisms [2]
  Activities: G B
Microorganisms [3]; [4]
  Target(s): M. luteus and C. albicans and MRSA and E. faecalis and C. jeikeium

## PF-025: peptide having multiple activities (LLIIFRLWLELKWKNKK; Peptide with targeting and/or antimicrobial activity)
Microorganisms [1]; C. jeikeium
  Organism, effect: C. jeikeium: C. jeikeium (A)
Microorganisms [1]
  Organism, effect: M. luteus: M. luteus (A)
  Organism, effect: S. epidermidis: S. epidermidis (S)
Microorganisms [1]; MRSA
  Organism, effect: MRSA: MRSA (R)
Microorganisms [2]
  Activities: G B
Microorganisms [3]; [4]
  Target(s): S. epidermidis and M. luteus and P. mirabilis and E. coli and P. aeruginosa and MRSA and E. faecalis and C. jejuni

## PF-026: peptide having multiple activities (SIHFIN; Peptide with targeting and/or antimicrobial activity)
Microorganisms [1]; MRSA
  Organism, effect: MRSA: MRSA (M)
Microorganisms [2]
  Activities: G B
Microorganisms [3]; [4]
  Target(s): S. epidermidis and M. luteus and P. mirabilis and C. albicans and MRSA and E. faecalis and C. jeikeium

## PF-027: peptide having multiple activities (HNARKYLEFISQKIDGDKLTKEDSL; Peptide with targeting and/or antimicrobial activity)
Microorganisms [1]; MRSA
  Organism, effect: MRSA: MRSA (M)
Microorganisms [1]
  Organism, effect: S. epidermidis: S. epidermidis (D)
Microorganisms [2]
  Activities: G B
Microorganisms [3]; [4]
  Target(s): M. luteus and MRSA and E. faecalis and C. jejuni
